# Assay results published in US12428406B2 (PMV Pharmaceuticals, Inc., priority 2019, dated 2025).
# Molecular target: T1, p53 Y220C (Homo sapiens, UniProt P04637, Y220C)
# T1 construct: The recombinant protein was a truncation mutant containing only amino acids 94-312 of p53; made in house; host or cells: E. coli
# Assay: In vitro DNA binding activity assay (HTRF / TR-FRET): stabilization of p53 Y220C and increase of its DNA binding activity
# Type: biochemical
# Conditions: recombinant His-tagged p53 Y220C DNA binding domain (aa 94-312), biotin-labeled consensus DNA, incubated at 27° C. or 29° C. for 60 min
# Method in brief: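 Compounds from 4.5 mM DMSO stocks, 3-fold serial dilutions; room-temperature incubations of 15 and 20 min. SC150 = concentration raising DNA binding by 50% over no-compound control.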
# T1 sequence (P04637 94-312, change not shown): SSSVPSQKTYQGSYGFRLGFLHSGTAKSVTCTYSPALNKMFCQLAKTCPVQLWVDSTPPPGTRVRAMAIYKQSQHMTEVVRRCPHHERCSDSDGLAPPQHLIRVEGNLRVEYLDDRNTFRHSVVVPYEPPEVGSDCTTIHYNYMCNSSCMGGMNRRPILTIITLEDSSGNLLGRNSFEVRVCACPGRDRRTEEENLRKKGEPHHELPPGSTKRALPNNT
row,Structure (SMILES),SC150 (concentration of the compound required to increase the DNA binding activity by 50%)
1,"COc1ccc(S(C)(=O)=O)cc1NCC#Cc1cc2c(NC3CCN(C)CC3)cccc2n1CC(F)(F)F [Compound 495A, 2-{3-[(5-methanesulfonyl-2-methoxyphenyl)amino]prop-1-yn-1-yl}-N-(1-methylpiperidin-4-yl)-1-(2,2,2-trifluoroethyl)-1H-indol-4-amine]",+++ (+++ = 0.1 μM ≤ SC150 < 0.2 μM)
2,"COc1cc(C(=O)NC(C)C)ccc1NCC#Cc1cc2c(N[C@@H]3CCN(C)C[C@@H]3F)cccc2n1CC(F)(F)F [Compound 808A, 4-{[3-(4-{[(3S,4R)-3-fluoro-1-methylpiperidin-4-yl]amino}-1-(2,2,2-trifluoroethyl)-1H-indol-2-yl)prop-2-yn-1-yl]amino}-3-methoxy-N-(propan-2-yl)benzamide]",+ (+ = 0 μM ≤ SC150 < 0.05 μM)
3,"COCCN(C)[C@H]1CC[C@H](Nc2cccc3c2cc(C#CCNc2ccc(S(N)(=O)=O)cc2OCF)n3CC(F)(F)F)CC1 [Compound 168A, 3-(fluoromethoxy)-4-{[3-(4-{[(1R,4R)-4-[(2-methoxyethyl)(methyl)amino]cyclohexyl]amino}-1-(2,2,2-trifluoro-ethyl)-1H-indol-2-yl)prop-2-yn-1-yl]amino}benzene-1-sulfonamide]",+ (+ = 0 μM ≤ SC150 < 0.05 μM)
4,CN1CCC(Nc2cccc3c2cc(C#CCNc2ccc(S(C)(=O)=O)cc2OC(F)(F)F)n3CC(F)(F)F)CC1 [Compound 466A],+ (+ = 0 μM ≤ SC150 < 0.05 μM)
5,"COc1cc(S(N)(=O)=O)ccc1NCC#Cc1cc2c(N[C@H]3CC[C@@H](N4CC5(COC5)C4)CC3)cccc2n1CC(F)(F)F [Compound 204A, 3-methoxy-4-{[3-(4-{[(1R,4R)-4-{2-oxa-6-azaspiro[3.3]heptan-6-yl}cyclohexyl]amino}-1-(2,2,2-trifluoroethyl)-1H-indol-2-yl)prop-2-yn-1-yl]amino}benzene-1-sulfonamide]",+ (+ = 0 μM ≤ SC150 < 0.05 μM)
6,"COc1cc(S(C)(=O)=O)ccc1NCC#Cc1cc2c(NC3CCN(CC(O)COCC(F)(F)F)CC3)cccc2n1CC(F)(F)F (centres unmarked) [Compound 673A, 1-{4-[(2-{3-[(4-methanesulfonyl-2-methoxyphenyl)amino]prop-1-yn-1-yl}-1-(2,2,2-trifluoroethyl)-1H-indol-4-yl)amino]piperidin-1-yl}-3-(2,2,2-trifluoroethoxy)propan-2-ol]",+ (+ = 0 μM ≤ SC150 < 0.05 μM)
7,"COc1cc(C(C)(C)C#N)ccc1NCC#Cc1cc2c(NC3CCC(N4CC5(COC5)C4)CC3)cccc2n1CC(F)(F)F [Compound 251A, 2-(3-methoxy-4-{[3-(4-{[(1R,4R)-4-{2-oxa-6-azaspiro[3.3]heptan-6-yl}cyclohexyl]amino}-1-(2,2,2-trifluoroethyl)-1H-indol-2-yl)prop-2-yn-1-yl]amino}phenyl)-2-methylpropanenitrile]",+ (+ = 0 μM ≤ SC150 < 0.05 μM)
8,"CNC(=O)c1ccc(NCC#Cc2cc3c(N[C@H]4CC[C@H](N(C)C)CC4)cccc3n2CC(F)(F)F)c(O)c1 [Compound 98A, 3-hydroxy-N-methyl-4-{[3-(4-{[(1R,4R)-4-(dimethylamino)cyclo-hexyl]amino}-1-(2,2,2-trifluoroethyl)-1H-indol-2-yl)prop-2-yn-1-yl]amino}benzamide]",+ (+ = 0 μM ≤ SC150 < 0.05 μM)
9,"CN(C)[C@H]1CC[C@H](Nc2cccc3c2cc(C#CCNc2ccc(S(C)(=O)=O)cc2OCC(F)(F)F)n3CC(F)(F)F)CC1 [Compound 92A, (1R,4R)-N^4-[2-(3-{[4-methanesulfonyl-2-(2,2,2-trifluoroethoxy)phenyl]amino}prop-1-yn-1-yl)-1-(2,2,2-trifluoro-ethyl)-1H-indol-4-yl]-N^1,N^1-dimethylcyclo-hexane-1,4-diamine]",+ (+ = 0 μM ≤ SC150 < 0.05 μM)
10,"CCOc1cc(S(C)(=O)=O)ccc1NCC#Cc1cc2c(N[C@H]3CC[C@H](N4CCOCC4)CC3)cccc2n1CC(F)(F)F [Compound 346A, 2-(3-((2-ethoxy-4-(methylsulfonyl)phenyl)amino)prop-1-yn-1-yl)-N-((1R,4R)-4-morpholinocyclohexyl)-1-(2,2,2-trifluoroethyl)-1H-indol-4-amine]",+ (+ = 0 μM ≤ SC150 < 0.05 μM)
11,"COc1cc(S(C)(=O)=O)ccc1NCC#Cc1cc2c(N[C@@H]3CCN(CC(C)O)C[C@@H]3F)cccc2n1CC(F)(F)F (mixture of isomers) [Compound 871A, 1-[(3S,4R)-3-fluoro-4-[(2-{3-[(4-methanesulfonyl-2-methoxyphenyl)amino]prop-1-yn-1-yl}-1-(2,2,2-trifluoroethyl)-1H-indol-4-yl)amino]piperidin-1-yl]propan-2-ol]",+ (+ = 0 μM ≤ SC150 < 0.05 μM)
12,"CNC(=O)c1ccc(NCC#Cc2cc3c(N[C@H]4CC[C@H](N5CC6(CCCOC6)C5)CC4)cccc3n2CC(F)(F)F)c(OC)c1 [Compound 318A, 3-methoxy-N-methyl-4-{[3-(4-{[(1R,4R)-4-{6-oxa-2-azaspiro[3.5]nonan-2-yl}cyclohexyl]amino}-1-(2,2,2-trifluoroethyl)-1H-indol-2-yl)prop-2-yn-1-yl]amino} benzamide]",+ (+ = 0 μM ≤ SC150 < 0.05 μM)
13,"COc1cc(S(C)(=O)=O)ccc1NCC#Cc1cc2c(NC3CCN(C4CC4)CC3)cccc2n1CC(F)(F)F [Compound 720A, N-(1-cyclopropylpiperidin-4-yl)-2-{3-[(4-methanesulfonyl-2-methoxyphenyl)amino]prop-1-yn-1-yl}-1-(2,2,2-trifluoroethyl)-1H-indol-4-amine]",+ (+ = 0 μM ≤ SC150 < 0.05 μM)
14,"N#CCOc1cc(S(N)(=O)=O)ccc1NCC#Cc1cc2c(N[C@H]3CC[C@H](N4CCOCC4)CC3)cccc2n1CC(F)(F)F [Compound 342A, 3-(cyanomethoxy)-4-{[3-(4-{[(1R,4R)-4-(morpholin-4-yl)cyclohexyl]amino}-1-(2,2,2-trifluoroethyl)-1H-indol-2-yl)prop-2-yn-1-yl]amino}benzene-1-sulfonamide]",+ (+ = 0 μM ≤ SC150 < 0.05 μM)
15,"CS(=O)(=O)c1ccc(NCC#Cc2cc3c(N[C@H]4CC[C@H](N5CC6(COC6)C5)CC4)cccc3n2CC(F)(F)F)c(OCCO)c1 [Compound 225A, 2-(5-methanesulfonyl-2-{[3-(4-{[(1R,4R)-4-{2-oxa-6-azaspiro[3.3]heptan-6-yl}cyclo-hexyl]amino}-1-(2,2,2-trifluoroethyl)-1H-indol-2-yl)prop-2-yn-1-yl]amino}phenoxy)ethan-1-ol]",+ (+ = 0 μM ≤ SC150 < 0.05 μM)
16,"CNS(=O)(=O)c1ccc(NCC#Cc2cc3c(N[C@H]4CC[C@H](N(C)C)CC4)cccc3n2CC(F)(F)F)c(OC)c1 [Compound 71A, 3-methoxy-N-methyl-4-{[3-(4-{[(1R,4R)-4-(dimethylamino)cyclohexyl]amino}-1-(2,2,2-trifluoroethyl)-1H-indol-2-yl)prop-2-yn-1-yl]amino}benzene-1-sulfonamide]",+ (+ = 0 μM ≤ SC150 < 0.05 μM)
17,COc1cc(S(=O)(=O)N(C)C)ccc1NCC#Cc1cc2c(NC3CCN(C(=O)CO)CC3)cccc2n1CC(F)(F)F [Compound 730A],+ (+ = 0 μM ≤ SC150 < 0.05 μM)
18,"CNC(=O)c1ccc(NCC#Cc2cc3c(NC4CCC(N5CC6(COC6)C5)CC4)cccc3n2CC(F)(F)F)c(OCCC#N)c1 [Compound 255A, 3-(2-cyanoethoxy)-N-methyl-4-{[3-(4-{[(1R,4R)-4-{2-oxa-6-azaspiro[3.3]heptan-6-yl}cyclohexyl]amino}-1-(2,2,2-trifluoroethyl)-1H-indol-2-yl)prop-2-yn-1-yl]amino}benzamide]",+ (+ = 0 μM ≤ SC150 < 0.05 μM)
19,"COCC(O)CN1CCC(Nc2cccc3c2cc(C#CCNc2ccc(Cl)cc2OC)n3CC(F)(F)F)CC1 (centres unmarked) [Compound 716A, 1-{4-[(2-{3-[(4-chloro-2-methoxyphenyl)amino]prop-1-yn-1-yl}-1-(2,2,2-trifluoroethyl)-1H-indol-4-yl)amino]piperidin-1-yl}-3-methoxypropan-2-ol]",++ (++ = 0.05 μM ≤ SC150 < 0.1 μM)
20,CCN(CC)CCNC(=O)c1ccc(NCC#Cc2cc3c(N[C@@H]4CCN(C)C[C@@H]4F)cccc3n2CC(F)(F)F)c(OC)c1 [Compound 946A],+ (+ = 0 μM ≤ SC150 < 0.05 μM)
21,"COCC(O)CN1CCC(Nc2cccc3c2cc(C#CCNc2ccc(S(C)(=O)=O)cc2OC)n3CC(F)(F)F)CC1 (centres unmarked) [Compound 569A, 1-{4-[(2-{3-[(4-methanesulfonyl-2-methoxyphenyl)amino]prop-1-yn-1-yl}-1-(2,2,2-trifluoroethyl)-1H-indol-4-yl)amino]piperidin-1-yl}-3-methoxypropan-2-ol]",+ (+ = 0 μM ≤ SC150 < 0.05 μM)
22,"COc1cc(C(C)(C)C#N)ccc1NCC#Cc1cc2c(N[C@H]3CC[C@H](N(C)C)CC3)cccc2n1CC(F)(F)F [Compound 121A, 2-(3-methoxy-4-{[3-(4-{[(1R,4R)-4-(dimethylamino)cyclohexyl]amino}-1-(2,2,2-trifluoroethyl)-1H-indol-2-yl)prop-2-yn-1-yl]amino}phenyl)-2-methylpropanenitrile]",+ (+ = 0 μM ≤ SC150 < 0.05 μM)
23,"CNC(=O)c1ccc(NCC#Cc2cc3c(N[C@H]4CC[C@H](N(C)C)CC4)cccc3n2CC(F)(F)F)c(OCC#N)c1 [Compound 113A, 3-(cyanomethoxy)-N-methyl-4-{[3-(4-{[(1R,4R)-4-(dimethyl-amino)cyclohexyl]amino}-1-(2,2,2-trifluoro-ethyl)-1H-indol-2-yl)prop-2-yn-1-yl]amino}benzamide]",+ (+ = 0 μM ≤ SC150 < 0.05 μM)
